Data taken from patent US20230248723A1, “PYRROLO[2,3-B]PYRAZINE COMPOUNDS AS CCCDNA INHIBITORS FOR THE TREATMENT OF HEPATITIS B VIRUS (HBV) INFECTION” (Hoffmann-La Roche Inc., priority 2017, published 2023).
Where two headings read alike, the source gives them in different places.

Tests used:
liver-enriched genes = assay: HLC maturation screening (microfluidic RT-qPCR of liver-enriched genes); format: cell-based, human; details: 96 liver-enriched genes
Protocol: FIG. 6: Effect of MB-1 on the expression of 96 liver-enriched genes in HLC. HLC seeded on collagen I-coated 6-well plates were treated with MB-1 (1, 5, or 10 μM) in 1% DMSO, or 1% DMSO (each in triplicate) for 4 days. Cells were harvested and expression of 96 liver-enriched genes was analyzed by microfluidic RT-qPCR (Fluidigm).
HLC are seeded on collagen 1-coated 96-well plates in 100 μl medium D containing Matrigel 0.25 mg/ml. The next day (day 1), compound library was added to cells at a final concentration 4 μM in 1% DMSO. Fresh medium and compound was replenished 2 days later (day 3). At day 4, cells were harvested using Cells-to-Ct lysis kit (Ambion/Thermo Fisher), total RNAs were reverse-transcribed, and the resulting cDNA products were loaded into the microfluidic 96.96 Dynamic Array™ IFC and assayed against 32 liver-enriched genes on Biomark HD system (Fluidigm). The relative gene expression was calculated from delta Ct values using house-keeping gene (PPIA) in DMSO control as reference; delta Ct values were then converted to fold-change values. Compounds that increased liver-enriched gene expression in HLC ≥3-fold compared to DMSO control were further tested in dose-response (1, 5, 10, and 50 μM). The secondary screen was performed as above using 96-liver enriched genes. The top candidate (MB-1) was used for all experiments utilizing HLC. […]

[1] = test system: albumin (secreted, cellular toxicity marker); assay: Albumin (in vitro tox), HepaRG; format: cell-based; details: human
Protocol: Following 4 day of maturation with 1 μM MB-1, HLC were incubated with HBV (purified from CHB individuals) at multiplicity of infection (MOI) 10-40 without PEG for 24 hr; virus inoculum was removed the following day. HBV infection in PHH was performed at MOI 40+4% PEG. Compound treatment in HLC and PHH was started at day 3 post infection. Compound (in powder) was dissolved in DMSO; the final concentration of DMSO added to cells is 1%. Fresh compound was replenished every 2 day until cells were harvested at day 10 (PHH), or day 14 (HLC). Compound effect on HBV and cellular toxicity was measured by multiplex assay (HBsAg, HBeAg, albumin), branched DNA (pgRNA), or digital PCR (cccDNA) and depicted as % of inhibition compared to DMSO control. Graphs were prepared using Spotfire software.
A custom, Luminex-based multiplex assay that simultaneously measured HBeAg, albumin, and HBsAg was developed by Radix BioSolutions (Georgetown, Tex.). This is a sandwich immunoassay; each capture antibody was coupled with xMAP™ Luminex magnetic beads. […] Samples were read on FlexMAP 3D (Luminex) and analyzed by Genedata software.
Most of HBV in vitro studies, including evaluation of compound antiviral activity, are performed in hepatoma cell lines (HepaRG or HepG2-NTCP) infected with cell culture-derived HBV (e.g. HepG2.2.15-derived virus, GT D). […] To address the first question, PHH (in 384-well plate) were infected with four clinical HBV isolates (GT A-D, at MOI 40). […] Most HBV in vitro studies are performed in hepatoma cell lines (e.g. HepaRG or HepG2 cell lines) utilizing HepG2-derived HBV as the virus inoculum.

HBeAg = assay: HBeAg, HBV-infected HepaRG; format: cell-based; details: Hepatitis B virus

Question: With `O=C(NCc1cccc(F)c1)c1cccc2[nH]c(-c3c(NC[C@@H](O)c4ccccc4)cc[nH]c3=O)nc12` [MB-1] as the molecule, how does the “concentration at which mRNA expression of liver-enriched genes is enhanced” value (liver-enriched genes) read?
Answer: 55 µM

Question: What does the source list for `O=C(NC(CO)CO)c1c[nH]c2ncc(C3CC3)nc12` [compound 7]?
Answer: IC50 ([1]; HepG2.2.15-derived HBV GT D, MOI 40, read-out: In vitro tox albumin IC50 (μM) Median): 24.9 µM; IC50 ([1]; HepG2.2.15-derived HBV GT D, MOI 125, read-out: In vitro tox albumin IC50 (μM) Median): 26.6 µM; IC50 ([1]; HepaRG cells infected with HBV, patient-derived HBV GT D, MOI 40, read-out: In vitro tox albumin IC50 (μM) Median): 23.4 µM; IC50 ([1]; HepaRG cells infected with HBV, patient-derived HBV GT D, MOI 125, read-out: In vitro tox albumin IC50 (μM) Median): 25.7 µM; IC50 (HBeAg; read-out: HBeAg IC50 (μM) Median, HepaRG, HepG2.2.15-derived HBV GT D, MOI 40): 6.11 µM; IC50 (HBeAg; read-out: HBeAg IC50 (μM) Median, HepaRG, HepG2.2.15-derived HBV GT D, MOI 125): 6.55 µM; IC50 (HBeAg; read-out: HBeAg IC50 (μM) Median, HepaRG, patient-derived HBV GT D, MOI 40): 0.41 µM; IC50 (HBeAg; read-out: HBeAg IC50 (μM) Median, HepaRG, patient-derived HBV GT D, MOI 125): 0.52 µM
